Data reported in US20240041825A1, “SAROGLITAZAR AND MYRISTIC ACID FOR USE IN THE TREATMENT OF FOCAL SEGMENTAL GLOMERULOSCLEROSIS (FSGS)” (Delta 4 GmbH, priority 2020, published 2024).

Tested on: Adriamycin-induced FSGS in BALB/c mice
Assay: Adriamycin induced nephropathy mouse model of FSGS (UPCR, UACR, histology)
Type: in vivo
Settings: Experiment 1, FIG. 5; chow with 25 mg/kg saroglitazar and/or 625 mg/kg myristic acid from day 2
Source text: For biological testing of the shortlisted compounds, we chose accepted mouse models of FSGS such as the adriamycin induced nephropathy or miR-193a-overexpressing mice which suffer from FSGS due to suppression of Wilms' tumor 1 (WT1) gene (Gebeshuber et al., 2013). All animal experiments and handling were in accordance with the Austrian law for protection of animals and approved by the animal ethics committee of the Austrian ministry for science and research.
Adriamycin-dependent nephropathy (active compound: doxorubicin) was induced by tail vein injection accepted doses of approx. 9 mg/kg mouse in 10 weeks old BALB/c mice. Control mice were injected with 0.9% saline. At least 6 mice were analyzed per group. Mice were monitored daily for signs of pain, altered movement, or reduced food uptake and sacrificed by cervical dislocation. […]
Urinary albumin levels were assessed by ELISA, urinary total protein and urinary creatinine levels were measured on the Roche Cobas system, using routine laboratory kits. Urinary protein/creatinine (UPCR) ratio and urinary albumin/creatinine ratio (UACR) were assessed at different time points. Weight and physical fitness scores were monitored on a daily basis. […]
Spot urine was collected every week and Creatinine and protein levels were measured.
Urinary albumin was measured by ELISA. […]

SMILES	effect on proteinuria (UPCR) versus control, in words
CCCCCCCCCCCCCC(=O)O [Myristic acid]	did not reduce UPCR
CCO[C@@H](Cc1ccc(OCCn2c(C)ccc2-c2ccc(SC)cc2)cc1)C(=O)O [saroglitazar]	able to ameliorate proteinuria to a certain extent
